Laboratory results taken from publication PMC4920026 (Scientific Reports, 2016).
Like-named read-outs stand apart in the source and are kept apart here.

Biological target: huPrP(23–230) (Homo sapiens, UniProt P04156)
Assay type: binding
Settings: for k2 (microscopic association constant of xenon to the open state): k1 = 0, pH 4.5

**Q.** What does the source list for [Xe] [xenon]?
**A.** ΔG24 (free energy of xenon binding to the open state) (binding site A1, 293 K): -19.7 ± 0.3 kJ/M; Kd (binding site A1, Kapp = 1/k2 + k3/k2, 293 K, read-out: Kapp Xe (apparent xenon dissociation constant)): 12.5 mM; k2 (microscopic association constant of xenon to the open state) (binding site A1, 293 K): 3.2 ± 0.4 mM⁻¹; ΔG24 (free energy of xenon binding to the open state) (binding site A2, 293 K): -14.91 ± 0.03 kJ/M; Kd (binding site A2, Kapp = 1/k2 + k3/k2, 293 K, read-out: Kapp Xe (apparent xenon dissociation constant)): 14.6 mM; k2 (microscopic association constant of xenon to the open state) (binding site A2, 293 K): 0.46 ± 0.01 mM⁻¹; ΔG24 (free energy of xenon binding to the open state) (binding site B, 293 K): -20.5 ± 0.2 kJ/M; Kd (binding site B, Kapp = 1/k2 + k3/k2, 293 K, read-out: Kapp Xe (apparent xenon dissociation constant)): 9.1 mM; k2 (microscopic association constant of xenon to the open state) (binding site B, 293 K, k3 set to 39): 4.5 ± 0.4 mM⁻¹; ΔG24 (free energy of xenon binding to the open state) (binding site C, 293 K): -11.5 ± 0.7 kJ/M; Kd (binding site C, Kapp = 1/k2 + k3/k2, 293 K, read-out: Kapp Xe (apparent xenon dissociation constant)): 11.4 mM; k2 (microscopic association constant of xenon to the open state) (binding site C, 293 K): 0.11 ± 0.03 mM⁻¹; ΔG24 (free energy of xenon binding to the open state) (binding site D, 293 K): -14.24 ± 0.02 kJ/M; Kd (binding site D, Kapp = 1/k2 + k3/k2, 293 K, read-out: Kapp Xe (apparent xenon dissociation constant)): 11.8 mM; k2 (microscopic association constant of xenon to the open state) (binding site D, 293 K): 0.34 ± 0.02 mM⁻¹; apparent xenon affinities k2/(1 + k3) (order of magnitude, over all cavities): ~0.1 mM⁻¹; Kd (order of magnitude, over all cavities, read-out: apparent dissociation constants): ~10 mM
